Legend:
[1] = tested on: IFN γ secretion in Con-A activated naive mouse splenocytes; test: IFN γ secretion in Con-A activated naive mouse splenocytes; type: cell-based; details: FIG. 3B
From the text: This example illustrates IFN y secretion data obtained by separately administering different concentrations of compound (Ia), paroxetine, citalopram, and ecitalopram to Con-A activated naive mouse splenocytes. The results are depicted in FIG. 3B.

[2] = tested on: human keratinocytes (HaCat cells); test: Viability of human keratinocytes (HaCat cells), neutral red staining; type: cell-based; details: 24 hr, read-out: IC50, cell viability
[3] = tested on: c-jun and p-c-jun expression in HaCat cells; test: Western blot of c-jun and p-c-jun expression in HaCat cells; type: cell-based, human; details: 15 μM, 1 hr
From the text: For each sample 2×10^7 cells were used. The cells were lysed, and equal amounts of protein was fractionated on polyacrylamide gel and then transferred to PVDF membrane. The amount of the protein was detected by immuno-blotting with monoclonal anti-c-Jun or p-c-Jun antibodies (Cayman, Ann Arbor, Mich., USA). A second antibody conjugated to horseradish peroxidase was used and visualized with chemiluminescent Kit (Pierce, Rockford, Ill., USA) on film. […] Activation of the […] pathway produces p-c-Jun as a major end, while initiating apoptosis in certain cell-lines.

[4] = tested on: Caspase 3 activity in human Jurkat lymphoma cells; test: Caspase 3 activity in human Jurkat lymphoma cell-line, fluorimetric Ac-DEVD-AMC; type: cell-based; details: 4 hr after exposure, compared to vehicle treated cells
Protocol: This example illustrates Caspase 3 activity data obtained by administering compound (Ia) to a human Jurkat lymphoma cell-line. The results are depicted FIG. 8A. Each point is the mean of 2 determinations.
Caspase 3 activity was measured by an enzymatic fluorimetric method using a fluorigenic substrate (Ac-DEVD-AMC), which produces blue fluorescence detected at 360 nm wavelength. See Garcia-Calvo et al., J Biol Chem, 273(49), 32608-13 (1998). When AMC is cleaved from the substrate by caspase-3, and caspase-3-like enzymes, it produces a yellow-green fluorescence, which can be monitored by a fluorimeter at 460 nm. The amount of yellow green fluorescence is proportional to the activity of caspase-3 in the cell extract sample.
The human Jurkat lymphoma cell-line, as used in FIG. 8A, and the human MDR colon cancer LS1034 lysates, as used in FIG. 8B, were prepared by Triton X-100 extraction 4 hr after exposure to the applicable compound (10 or 20 μM) or the vehicle. Whole cell lysate was added to a buffer containing 100 μM peptide substrate, 100 mM HEPES, 10% glycerol, 1 mM EDTA and 10 mM dithiothreitol. Measurements were taken every 5 min for 80 min. These experiments were also monitored in the presence of a specific caspase-3 inhibitor, DEVD-AMC-CHO, which was added after 45 or 60 min to the reaction mixture, to ascertain the specificity of the enzyme.

CNXF SF268 = test: Monolayer Assay, PI: CNXF SF268; type: cell-based, human
From the text: (§1) This example illustrates cell proliferation data in the form of IC50, IC70 and IC90 values obtained by exposure of human cancer cell-lines to compound (Ia). […].

LXF 289L = test: Monolayer Assay, PI: LXF 289L (Lung); type: cell-based, human
From the text: as §1

MAXF MCF7 = test: Monolayer Assay, PI: MAXF MCF7 (Breast); type: cell-based, human
From the text: as §1

MEXF 520L = test: Monolayer Assay, PI: MEXF 520L (Melanoma); type: cell-based, human
From the text: as §1

PRXF 22RV1 = test: Monolayer Assay, PI: PRXF 22RV1 (Prostate); type: cell-based, human
From the text: as §1

PRXF LNCAP = test: Monolayer Assay, PI: PRXF LNCAP (Prostate); type: cell-based, human
From the text: as §1

PXF 1752L = test: Monolayer Assay, PI: PXF 1752L (Pleuramesothelioma); type: cell-based, human
From the text: as §1

RXF 1781L = test: Monolayer Assay, PI: RXF 1781L (Renal); type: cell-based, human
From the text: as §1

SMILES: CN[C@H]1CC[C@@H](c2ccc(Cl)c(Cl)c2)c2ccc(C#CCCCO)cc21 [compound (Ia), (1S-cis)-4-(3,4-dichlorophenyl)-7-(5-hydroxy-1-pentyn-1-yl)-1,2,3,4-tetrahydro-N-methyl-1-naphthalenamine hydroiodide]
- IFN γ secretion inhibitory activity [1]: greater IFN γ secretion inhibitory activity than paroxetine, citalopram, and ecitalopram
- IC50 [2]: 18.5 µM
- effect on c-Jun / p-c-Jun (MAPK pathway) [3]: activation of the c-Jun-N-terminal kinase (JNK) pathway
- Caspase 3 activity [4]: increase in the activity of the caspase-3
- Test/Control (%) (CNXF SF268; 2.3 μg/ml): 70%
- Test/Control activity class (CNXF SF268; 2.3 μg/ml): − (− (T/C = 50))
- Test/Control (%) (CNXF SF268; 7.5 μg/ml): 5%
- Test/Control activity class (CNXF SF268; 7.5 μg/ml): +++ (+++ (T/C < 10))
- Test/Control (%) (CNXF SF268; 23. μg/ml): 4%
- Test/Control activity class (CNXF SF268; 23. μg/ml): +++ (+++ (T/C < 10))
- Test/Control (%) (CNXF SF268; 75. μg/ml): 3%
- Test/Control activity class (CNXF SF268; 75. μg/ml): +++ (+++ (T/C < 10))
- Test/Control (%) (CNXF SF268; .75 μg/ml): 91%
- Test/Control activity class (CNXF SF268; .75 μg/ml): − (− (T/C = 50))
- Test/Control (%) (LXF 289L; 2.3 μg/ml): 101%
- Test/Control activity class (LXF 289L; 2.3 μg/ml): − (− (T/C = 50))
- Test/Control (%) (LXF 289L; 7.5 μg/ml): 42%
- Test/Control activity class (LXF 289L; 7.5 μg/ml): + (+ (30 <= T/C < 50))
- Test/Control (%) (LXF 289L; 23. μg/ml): 4%
- Test/Control activity class (LXF 289L; 23. μg/ml): +++ (+++ (T/C < 10))
- Test/Control (%) (LXF 289L; 75. μg/ml): 3%
- Test/Control activity class (LXF 289L; 75. μg/ml): +++ (+++ (T/C < 10))
- Test/Control (%) (LXF 289L; .75 μg/ml): 94%
- Test/Control activity class (LXF 289L; .75 μg/ml): − (− (T/C = 50))
- Test/Control (%) (MAXF MCF7; 2.3 μg/ml): 67%
- Test/Control activity class (MAXF MCF7; 2.3 μg/ml): − (− (T/C = 50))
- Test/Control (%) (MAXF MCF7; 7.5 μg/ml): 5%
- Test/Control activity class (MAXF MCF7; 7.5 μg/ml): +++ (+++ (T/C < 10))
- Test/Control (%) (MAXF MCF7; 23. μg/ml): 2%
- Test/Control activity class (MAXF MCF7; 23. μg/ml): +++ (+++ (T/C < 10))
- Test/Control (%) (MAXF MCF7; 75. μg/ml): 3%
- Test/Control activity class (MAXF MCF7; 75. μg/ml): +++ (+++ (T/C < 10))
- Test/Control (%) (MAXF MCF7; .75 μg/ml): 93%
- Test/Control activity class (MAXF MCF7; .75 μg/ml): − (− (T/C = 50))
- Test/Control (%) (MEXF 520L; 2.3 μg/ml): 83%
- Test/Control activity class (MEXF 520L; 2.3 μg/ml): − (− (T/C = 50))
- Test/Control (%) (MEXF 520L; 7.5 μg/ml): 8%
- Test/Control activity class (MEXF 520L; 7.5 μg/ml): ++ (++ (10 <= T/C < 30))
- Test/Control (%) (MEXF 520L; 23. μg/ml): 2%
- Test/Control activity class (MEXF 520L; 23. μg/ml): +++ (+++ (T/C < 10))
- Test/Control (%) (MEXF 520L; 75. μg/ml): 4%
- Test/Control activity class (MEXF 520L; 75. μg/ml): +++ (+++ (T/C < 10))
- Test/Control (%) (MEXF 520L; .75 μg/ml): 102%
- Test/Control activity class (MEXF 520L; .75 μg/ml): − (− (T/C = 50))
- Test/Control (%) (PRXF 22RV1; 2.3 μg/ml): 80%
- Test/Control activity class (PRXF 22RV1; 2.3 μg/ml): − (− (T/C = 50))
- Test/Control (%) (PRXF 22RV1; 7.5 μg/ml): 24%
- Test/Control activity class (PRXF 22RV1; 7.5 μg/ml): ++ (++ (10 <= T/C < 30))
- Test/Control (%) (PRXF 22RV1; 23. μg/ml): 2%
- Test/Control activity class (PRXF 22RV1; 23. μg/ml): +++ (+++ (T/C < 10))
- Test/Control (%) (PRXF 22RV1; 75. μg/ml): 2%
- Test/Control activity class (PRXF 22RV1; 75. μg/ml): +++ (+++ (T/C < 10))
- Test/Control (%) (PRXF 22RV1; .75 μg/ml): 85%
- Test/Control activity class (PRXF 22RV1; .75 μg/ml): − (− (T/C = 50))
- Test/Control (%) (PRXF LNCAP; 2.3 μg/ml): 56%
- Test/Control activity class (PRXF LNCAP; 2.3 μg/ml): − (− (T/C = 50))
- Test/Control (%) (PRXF LNCAP; 7.5 μg/ml): 4%
- Test/Control activity class (PRXF LNCAP; 7.5 μg/ml): +++ (+++ (T/C < 10))
- Test/Control (%) (PRXF LNCAP; 23. μg/ml): 3%
- Test/Control activity class (PRXF LNCAP; 23. μg/ml): +++ (+++ (T/C < 10))
- Test/Control (%) (PRXF LNCAP; 75. μg/ml): 3%
- Test/Control activity class (PRXF LNCAP; 75. μg/ml): +++ (+++ (T/C < 10))
- Test/Control (%) (PRXF LNCAP; .75 μg/ml): 78%
- Test/Control activity class (PRXF LNCAP; .75 μg/ml): − (− (T/C = 50))
- Test/Control (%) (PXF 1752L; 2.3 μg/ml): 81%
- Test/Control activity class (PXF 1752L; 2.3 μg/ml): − (− (T/C = 50))
- Test/Control (%) (PXF 1752L; 7.5 μg/ml): 27%
- Test/Control activity class (PXF 1752L; 7.5 μg/ml): ++ (++ (10 <= T/C < 30))
- Test/Control (%) (PXF 1752L; 23. μg/ml): 5%
- Test/Control activity class (PXF 1752L; 23. μg/ml): +++ (+++ (T/C < 10))
- Test/Control (%) (PXF 1752L; 75. μg/ml): 3%
- Test/Control activity class (PXF 1752L; 75. μg/ml): +++ (+++ (T/C < 10))
- Test/Control (%) (PXF 1752L; .75 μg/ml): 99%
- Test/Control activity class (PXF 1752L; .75 μg/ml): − (− (T/C = 50))
- Test/Control (%) (RXF 1781L; 2.3 μg/ml): 76%
- Test/Control activity class (RXF 1781L; 2.3 μg/ml): − (− (T/C = 50))
- Test/Control (%) (RXF 1781L; 7.5 μg/ml): 4%
- Test/Control activity class (RXF 1781L; 7.5 μg/ml): +++ (+++ (T/C < 10))
- Test/Control (%) (RXF 1781L; 23. μg/ml): 3%
- Test/Control activity class (RXF 1781L; 23. μg/ml): +++ (+++ (T/C < 10))
- Test/Control (%) (RXF 1781L; 75. μg/ml): 3%
- Test/Control activity class (RXF 1781L; 75. μg/ml): +++ (+++ (T/C < 10))
- Test/Control (%) (RXF 1781L; .75 μg/ml): 96%
- Test/Control activity class (RXF 1781L; .75 μg/ml): − (− (T/C = 50))
